{"source": "paper PMC4522657", "about": "“Identification of a DYRK1A Inhibitor that Induces Degradation of the Target Kinase using Co-chaperone CDC37 fused with Luciferase nanoKAZ” (Scientific Reports, 2015)", "test_in_all_cases": "Kinase panel, CaNDY 1 µM", "format_in_all_cases": "biochemical", "conditions_in_all_cases": "CaNDY 1 µM relative to DMSO", "key": {"ABL(E255K)": {"target": "T1, ABL(E255K) (Homo sapiens, UniProt P00519, E255K)", "T1 construct": "purchased Carna Biosciences", "procedure,_shortened": "(§1)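 Off-chip mobility shift read-out: electrophoretic separation of substrate and phosphorylated product after 1 h at RT. Enzymes were N-terminally GST-tagged full-length human proteins made in baculovirus. Percent inhibition came from P/(P+S) relative to a no-compound control, at 1% DMSO final.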"}, "GSK3β": {"target": "T2, GSK3β (Homo sapiens, UniProt P49841)", "T2 construct": "purchased Carna Biosciences", "procedure,_shortened": "as §1"}, "FGFR2": {"target": "T3, FGFR2 (Homo sapiens, UniProt P21802)", "T3 construct": "purchased Carna Biosciences", "procedure,_shortened": "as §1"}, "PRKX": {"target": "T4, PRKX (Homo sapiens, UniProt P51817)", "T4 construct": "purchased Carna Biosciences", "procedure,_shortened": "as §1"}, "TEC": {"target": "T5, TEC (Homo sapiens, UniProt P42680)", "T5 construct": "purchased Carna Biosciences", "procedure,_shortened": "as §1"}, "CDK9/CycT1": {"target": "T6, CDK9/CycT1 (Homo sapiens, UniProt P50750)", "T6 construct": "purchased Carna Biosciences", "procedure,_shortened": "as §1"}, "PKN1": {"target": "T7, PKN1 (Homo sapiens, UniProt Q16512)", "T7 construct": "purchased Carna Biosciences", "procedure,_shortened": "as §1"}, "PAK2": {"target": "T8, PAK2 (Homo sapiens, UniProt Q13177)", "T8 construct": "purchased Carna Biosciences", "procedure,_shortened": "as §1"}, "PKD1": {"target": "T9, PKD1 (Homo sapiens, UniProt Q15139)", "T9 construct": "purchased Carna Biosciences", "T9 sequence (Q15139 whole entry)": "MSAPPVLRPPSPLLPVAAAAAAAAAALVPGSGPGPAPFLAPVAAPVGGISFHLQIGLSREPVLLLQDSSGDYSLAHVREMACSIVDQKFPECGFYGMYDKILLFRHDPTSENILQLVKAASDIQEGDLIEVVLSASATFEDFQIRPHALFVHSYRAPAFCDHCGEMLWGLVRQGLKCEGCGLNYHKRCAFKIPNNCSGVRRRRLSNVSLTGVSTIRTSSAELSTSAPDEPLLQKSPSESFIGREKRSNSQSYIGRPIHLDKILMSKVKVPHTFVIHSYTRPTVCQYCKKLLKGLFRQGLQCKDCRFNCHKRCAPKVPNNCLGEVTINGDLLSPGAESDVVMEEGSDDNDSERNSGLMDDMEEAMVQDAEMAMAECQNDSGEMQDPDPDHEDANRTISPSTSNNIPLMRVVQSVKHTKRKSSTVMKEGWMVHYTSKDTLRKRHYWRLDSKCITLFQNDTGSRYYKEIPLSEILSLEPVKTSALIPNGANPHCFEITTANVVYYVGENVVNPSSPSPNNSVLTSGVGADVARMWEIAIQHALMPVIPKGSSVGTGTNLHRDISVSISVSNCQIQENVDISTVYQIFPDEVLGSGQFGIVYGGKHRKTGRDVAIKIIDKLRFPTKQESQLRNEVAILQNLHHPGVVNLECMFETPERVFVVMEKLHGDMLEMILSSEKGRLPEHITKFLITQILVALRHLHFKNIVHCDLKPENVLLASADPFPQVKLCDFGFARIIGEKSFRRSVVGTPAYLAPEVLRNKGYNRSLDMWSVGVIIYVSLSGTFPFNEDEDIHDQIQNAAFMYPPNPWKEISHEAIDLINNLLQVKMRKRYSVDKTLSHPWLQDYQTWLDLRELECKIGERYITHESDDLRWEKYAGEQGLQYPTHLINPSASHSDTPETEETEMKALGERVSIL", "procedure,_shortened": "as §1"}, "CDC7/ASK": {"target": "T10, CDC7/ASK (Homo sapiens, UniProt O00311)", "T10 construct": "purchased Carna Biosciences", "procedure,_shortened": "as §1"}, "NEK1": {"target": "T11, NEK1 (Homo sapiens, UniProt Q96PY6)", "T11 construct": "purchased Carna Biosciences", "T11 sequence (Q96PY6 whole entry)": "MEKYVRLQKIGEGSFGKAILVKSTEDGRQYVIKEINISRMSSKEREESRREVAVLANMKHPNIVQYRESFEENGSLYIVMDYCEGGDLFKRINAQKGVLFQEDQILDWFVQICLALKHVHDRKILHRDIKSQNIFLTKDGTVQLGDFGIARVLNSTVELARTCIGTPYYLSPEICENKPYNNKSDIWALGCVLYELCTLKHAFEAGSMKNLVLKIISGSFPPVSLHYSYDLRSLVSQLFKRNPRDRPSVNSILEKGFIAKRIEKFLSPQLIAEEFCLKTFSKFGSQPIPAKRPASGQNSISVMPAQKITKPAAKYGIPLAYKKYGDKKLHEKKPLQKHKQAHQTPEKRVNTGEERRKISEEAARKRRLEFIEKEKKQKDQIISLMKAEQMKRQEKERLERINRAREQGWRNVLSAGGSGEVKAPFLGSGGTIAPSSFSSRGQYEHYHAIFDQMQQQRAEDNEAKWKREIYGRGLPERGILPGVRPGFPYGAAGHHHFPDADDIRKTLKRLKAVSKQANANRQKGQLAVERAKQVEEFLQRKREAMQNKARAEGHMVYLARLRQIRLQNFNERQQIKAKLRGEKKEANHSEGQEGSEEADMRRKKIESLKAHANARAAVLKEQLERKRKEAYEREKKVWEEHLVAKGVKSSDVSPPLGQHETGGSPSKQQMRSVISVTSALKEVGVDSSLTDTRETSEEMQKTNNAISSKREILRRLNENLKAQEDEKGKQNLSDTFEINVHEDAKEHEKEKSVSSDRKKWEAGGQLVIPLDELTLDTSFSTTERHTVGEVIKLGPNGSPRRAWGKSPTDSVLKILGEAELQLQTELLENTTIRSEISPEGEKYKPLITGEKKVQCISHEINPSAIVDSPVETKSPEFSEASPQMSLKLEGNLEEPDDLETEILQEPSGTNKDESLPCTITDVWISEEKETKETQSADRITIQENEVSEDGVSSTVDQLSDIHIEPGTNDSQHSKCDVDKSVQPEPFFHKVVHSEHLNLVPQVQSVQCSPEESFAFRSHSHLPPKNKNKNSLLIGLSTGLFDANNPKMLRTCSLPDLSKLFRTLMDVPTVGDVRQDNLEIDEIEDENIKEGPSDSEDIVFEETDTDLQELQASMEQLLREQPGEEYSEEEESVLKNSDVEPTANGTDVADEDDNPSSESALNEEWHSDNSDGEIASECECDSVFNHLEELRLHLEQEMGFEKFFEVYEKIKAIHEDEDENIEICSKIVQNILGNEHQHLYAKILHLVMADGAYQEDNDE", "procedure,_shortened": "as §1"}, "CLK3": {"target": "T12, CLK3 (Homo sapiens, UniProt P49761)", "T12 construct": "purchased Carna Biosciences", "procedure,_shortened": "as §1"}, "PIM3": {"target": "T13, PIM3 (Homo sapiens, UniProt Q86V86)", "T13 construct": "purchased Carna Biosciences", "procedure,_shortened": "as §1"}, "EGFR": {"target": "T14, EGFR (Homo sapiens, UniProt P00533)", "T14 construct": "purchased Carna Biosciences", "T14 sequence (P00533 25-1210)": "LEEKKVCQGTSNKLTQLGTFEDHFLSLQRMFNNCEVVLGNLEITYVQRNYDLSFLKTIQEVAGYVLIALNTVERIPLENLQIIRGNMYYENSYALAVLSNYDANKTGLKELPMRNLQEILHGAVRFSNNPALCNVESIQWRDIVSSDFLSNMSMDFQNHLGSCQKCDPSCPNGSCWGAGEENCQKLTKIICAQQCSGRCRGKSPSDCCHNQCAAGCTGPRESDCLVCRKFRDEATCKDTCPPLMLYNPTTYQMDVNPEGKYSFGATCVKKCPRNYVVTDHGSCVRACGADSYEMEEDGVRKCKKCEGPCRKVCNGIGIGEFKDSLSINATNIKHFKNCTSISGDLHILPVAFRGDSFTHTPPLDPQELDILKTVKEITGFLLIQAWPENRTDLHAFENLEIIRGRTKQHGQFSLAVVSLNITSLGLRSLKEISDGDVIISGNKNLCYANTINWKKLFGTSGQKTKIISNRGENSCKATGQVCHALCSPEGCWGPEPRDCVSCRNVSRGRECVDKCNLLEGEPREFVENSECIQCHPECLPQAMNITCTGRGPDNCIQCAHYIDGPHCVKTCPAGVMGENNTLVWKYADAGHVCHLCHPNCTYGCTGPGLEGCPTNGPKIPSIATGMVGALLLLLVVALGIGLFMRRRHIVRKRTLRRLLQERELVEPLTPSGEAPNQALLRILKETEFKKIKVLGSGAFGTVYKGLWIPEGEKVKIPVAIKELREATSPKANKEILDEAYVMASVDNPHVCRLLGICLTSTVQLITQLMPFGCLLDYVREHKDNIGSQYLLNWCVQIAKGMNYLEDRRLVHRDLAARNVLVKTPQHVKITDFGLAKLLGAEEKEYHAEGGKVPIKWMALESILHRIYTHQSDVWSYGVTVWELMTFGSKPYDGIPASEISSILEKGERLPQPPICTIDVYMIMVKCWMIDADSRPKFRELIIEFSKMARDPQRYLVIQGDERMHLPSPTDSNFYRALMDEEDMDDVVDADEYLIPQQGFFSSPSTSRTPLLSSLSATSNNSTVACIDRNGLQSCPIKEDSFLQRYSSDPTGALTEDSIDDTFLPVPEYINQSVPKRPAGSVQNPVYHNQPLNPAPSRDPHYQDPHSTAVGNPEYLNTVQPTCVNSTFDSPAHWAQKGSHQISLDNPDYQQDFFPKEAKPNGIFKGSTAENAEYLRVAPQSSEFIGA", "procedure,_shortened": "as §1"}, "BMX": {"target": "T15, BMX (Homo sapiens, UniProt P51813)", "T15 construct": "purchased Carna Biosciences", "T15 sequence (P51813 whole entry)": "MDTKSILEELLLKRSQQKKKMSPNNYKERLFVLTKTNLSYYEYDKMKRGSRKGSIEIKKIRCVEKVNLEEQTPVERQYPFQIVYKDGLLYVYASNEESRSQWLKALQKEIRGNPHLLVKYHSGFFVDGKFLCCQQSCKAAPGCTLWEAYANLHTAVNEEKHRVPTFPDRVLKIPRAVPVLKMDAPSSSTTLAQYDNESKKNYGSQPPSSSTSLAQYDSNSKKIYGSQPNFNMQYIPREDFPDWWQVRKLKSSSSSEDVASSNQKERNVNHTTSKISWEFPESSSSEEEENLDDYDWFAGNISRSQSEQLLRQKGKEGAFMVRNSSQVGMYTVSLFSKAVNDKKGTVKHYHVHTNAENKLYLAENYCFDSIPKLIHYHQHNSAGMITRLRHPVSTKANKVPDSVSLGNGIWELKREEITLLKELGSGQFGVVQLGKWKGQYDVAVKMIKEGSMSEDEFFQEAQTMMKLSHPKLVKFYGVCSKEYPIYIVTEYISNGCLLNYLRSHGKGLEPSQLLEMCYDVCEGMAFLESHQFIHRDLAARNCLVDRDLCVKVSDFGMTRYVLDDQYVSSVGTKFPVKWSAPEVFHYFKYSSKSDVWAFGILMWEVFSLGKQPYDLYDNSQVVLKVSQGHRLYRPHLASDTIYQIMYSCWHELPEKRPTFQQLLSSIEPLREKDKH", "procedure,_shortened": "as §1"}, "PKACβ": {"target": "T16, PKACβ (Homo sapiens, UniProt P22694)", "T16 construct": "purchased Carna Biosciences", "procedure,_shortened": "as §1"}, "AMPKα1/β1/γ1": {"target": "T17, AMPKα1/β1/γ1 (Homo sapiens, UniProt Q13131)", "T17 construct": "purchased Carna Biosciences", "procedure,_shortened": "as §1"}, "NEK9": {"target": "T18, NEK9 (Homo sapiens, UniProt Q8TD19)", "T18 construct": "purchased Carna Biosciences", "procedure,_shortened": "as §1"}, "IKKε": {"target": "T19, IKKε (Homo sapiens, UniProt Q14164)", "T19 construct": "purchased Carna Biosciences", "procedure,_shortened": "as §1"}, "CSK": {"target": "T20, CSK (Homo sapiens, UniProt P41240)", "T20 construct": "purchased Carna Biosciences", "procedure,_shortened": "as §1"}, "Erk5": {"target": "T21, Erk5 (Homo sapiens, UniProt Q13164)", "T21 construct": "purchased Carna Biosciences", "procedure,_shortened": "as §1"}, "PLK3": {"target": "T22, PLK3 (Homo sapiens, UniProt Q9H4B4)", "T22 construct": "purchased Carna Biosciences", "T22 sequence (Q9H4B4 whole entry)": "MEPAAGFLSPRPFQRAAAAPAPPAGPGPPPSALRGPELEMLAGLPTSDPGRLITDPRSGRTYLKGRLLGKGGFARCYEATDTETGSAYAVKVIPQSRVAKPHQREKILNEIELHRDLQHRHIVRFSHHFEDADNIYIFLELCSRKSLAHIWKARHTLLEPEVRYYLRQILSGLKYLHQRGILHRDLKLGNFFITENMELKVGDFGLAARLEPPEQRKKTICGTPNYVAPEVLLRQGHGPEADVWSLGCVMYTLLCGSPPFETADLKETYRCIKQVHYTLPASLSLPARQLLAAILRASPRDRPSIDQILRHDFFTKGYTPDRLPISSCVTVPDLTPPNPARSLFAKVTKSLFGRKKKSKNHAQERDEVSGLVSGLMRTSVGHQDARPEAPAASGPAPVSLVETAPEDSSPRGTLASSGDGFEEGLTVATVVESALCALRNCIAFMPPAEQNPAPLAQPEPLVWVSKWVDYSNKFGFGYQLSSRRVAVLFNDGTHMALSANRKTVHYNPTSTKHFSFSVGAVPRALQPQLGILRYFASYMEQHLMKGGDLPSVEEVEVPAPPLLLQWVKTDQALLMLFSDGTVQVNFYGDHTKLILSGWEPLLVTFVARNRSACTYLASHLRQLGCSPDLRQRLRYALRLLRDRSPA", "procedure,_shortened": "as §1"}, "MGC42105": {"target": "T23, MGC42105 (Homo sapiens, UniProt Q8IY84)", "T23 construct": "purchased Carna Biosciences", "procedure,_shortened": "as §1"}, "CDK2/CycA2": {"target": "T24, CDK2/CycA2 (Homo sapiens, UniProt P24941)", "T24 construct": "purchased Carna Biosciences", "procedure,_shortened": "as §1"}, "QIK": {"target": "T25, QIK (Homo sapiens, UniProt Q9H0K1)", "T25 construct": "purchased Carna Biosciences", "procedure,_shortened": "as §1"}, "CaMK2δ": {"target": "T26, CaMK2δ (Homo sapiens, UniProt Q13557)", "T26 construct": "purchased Carna Biosciences", "procedure,_shortened": "as §1"}, "PKD2": {"target": "T27, PKD2 (Homo sapiens, UniProt Q9BZL6)", "T27 construct": "purchased Carna Biosciences", "procedure,_shortened": "as §1"}, "CDC2/CycB1": {"target": "T28, CDC2/CycB1 (Homo sapiens, UniProt P06493)", "T28 construct": "purchased Carna Biosciences", "procedure,_shortened": "as §1"}, "DYRK3": {"target": "T29, DYRK3 (Homo sapiens, UniProt O43781)", "T29 construct": "purchased Carna Biosciences", "procedure,_shortened": "as §1"}, "AMPKα2/β1/γ1": {"target": "T30, AMPKα2/β1/γ1 (Homo sapiens, UniProt P54646)", "T30 construct": "purchased Carna Biosciences", "procedure,_shortened": "as §1"}, "JNK2": {"target": "T31, JNK2 (Homo sapiens, UniProt P45984)", "T31 construct": "purchased Carna Biosciences", "procedure,_shortened": "as §1"}, "PKCε": {"target": "T32, PKCε (Homo sapiens, UniProt Q02156)", "T32 construct": "purchased Carna Biosciences", "procedure,_shortened": "as §1"}, "FGR": {"target": "T33, FGR (Homo sapiens, UniProt P09769)", "T33 construct": "purchased Carna Biosciences", "procedure,_shortened": "as §1"}, "CHK2": {"target": "T34, CHK2 (Homo sapiens, UniProt O96017)", "T34 construct": "purchased Carna Biosciences", "procedure,_shortened": "as §1"}, "BTK": {"target": "T35, BTK (Homo sapiens, UniProt Q06187)", "T35 construct": "purchased Carna Biosciences", "procedure,_shortened": "as §1"}, "ARG": {"target": "T36, ARG (Homo sapiens, UniProt P42684)", "T36 construct": "purchased Carna Biosciences", "procedure,_shortened": "as §1"}}}
{"smiles": "[H]/N=C1/NC(=O)C(=Cc2ccc3c(c2)CCO3)S1", "note": "[CaNDY, (Z)-5-[(2,3-dihydrobenzofuran-5-yl)methylene]-2-iminothiazolidin-4-one]", "values": [{"measurement": "remaining activity at 1 µM", "setting": "ABL(E255K)", "result": 104, "unit": "%"}, {"measurement": "remaining activity at 1 µM", "setting": "GSK3β", "result": 74.1, "unit": "%"}, {"measurement": "remaining activity at 1 µM", "setting": "FGFR2", "result": 104, "unit": "%"}, {"measurement": "remaining activity at 1 µM", "setting": "PRKX", "result": 97.6, "unit": "%"}, {"measurement": "remaining activity at 1 µM", "setting": "TEC", "result": 103, "unit": "%"}, {"measurement": "remaining activity at 1 µM", "setting": "CDK9/CycT1", "result": 19.4, "unit": "%"}, {"measurement": "remaining activity at 1 µM", "setting": "PKN1", "result": 74.6, "unit": "%"}, {"measurement": "remaining activity at 1 µM", "setting": "PAK2", "result": 101, "unit": "%"}, {"measurement": "remaining activity at 1 µM", "setting": "PKD1", "result": 72.9, "unit": "%"}, {"measurement": "remaining activity at 1 µM", "setting": "CDC7/ASK", "result": 68, "unit": "%"}, {"measurement": "remaining activity at 1 µM", "setting": "NEK1", "result": 95.6, "unit": "%"}, {"measurement": "%Activity", "setting": "CLK3", "result": 16.5, "unit": "%"}, {"measurement": "remaining activity at 1 µM", "setting": "PIM3", "result": 41.4, "unit": "%"}, {"measurement": "%Activity", "setting": "EGFR", "result": 99.9, "unit": "%"}, {"measurement": "remaining activity at 1 µM", "setting": "BMX", "result": 100, "unit": "%"}, {"measurement": "remaining activity at 1 µM", "setting": "PKACβ", "result": 92.5, "unit": "%"}, {"measurement": "remaining activity at 1 µM", "setting": "AMPKα1/β1/γ1", "result": 91.9, "unit": "%"}, {"measurement": "remaining activity at 1 µM", "setting": "NEK9", "result": 91.6, "unit": "%"}, {"measurement": "remaining activity at 1 µM", "setting": "IKKε", "result": 97.6, "unit": "%"}, {"measurement": "%Activity", "setting": "CSK", "result": 99.7, "unit": "%"}, {"measurement": "remaining activity at 1 µM", "setting": "Erk5", "result": 104, "unit": "%"}, {"measurement": "remaining activity at 1 µM", "setting": "PLK3", "result": 95.9, "unit": "%"}, {"measurement": "remaining activity at 1 µM", "setting": "MGC42105", "result": 102, "unit": "%"}, {"measurement": "%Activity", "setting": "CDK2/CycA2", "result": 86.3, "unit": "%"}, {"measurement": "remaining activity at 1 µM", "setting": "QIK", "result": 99.5, "unit": "%"}, {"measurement": "remaining activity at 1 µM", "setting": "CaMK2δ", "result": 89.6, "unit": "%"}, {"measurement": "remaining activity at 1 µM", "setting": "PKD2", "result": 83.3, "unit": "%"}, {"measurement": "remaining activity at 1 µM", "setting": "CDC2/CycB1", "result": 65.7, "unit": "%"}, {"measurement": "remaining activity at 1 µM", "setting": "DYRK3", "result": 11, "unit": "%"}, {"measurement": "remaining activity at 1 µM", "setting": "AMPKα2/β1/γ1", "result": 97.5, "unit": "%"}, {"measurement": "%Activity", "setting": "JNK2", "result": 102.6, "unit": "%"}, {"measurement": "remaining activity at 1 µM", "setting": "PKCε", "result": 91.9, "unit": "%"}, {"measurement": "remaining activity at 1 µM", "setting": "FGR", "result": 102, "unit": "%"}, {"measurement": "remaining activity at 1 µM", "setting": "CHK2", "result": 97.2, "unit": "%"}, {"measurement": "%Activity", "setting": "BTK", "result": 85.7, "unit": "%"}, {"measurement": "remaining activity at 1 µM", "setting": "ARG", "result": 98.8, "unit": "%"}]}
